Assay results from ChEMBL document CHEMBL2057167, “Rapid identification of ETP-46992, orally bioavailable PI3K inhibitor, selective versus mTOR” (Bioorg Med Chem Lett, 2012).
Calls of active or inactive are those of the source. The calls are words filed in the database; no cut-off is given here.

What was measured:
[1] = biological target: T1, Phosphatidylinositol 4,5-bisphosphate 3-kinase catalytic subunit alpha isoform (Homo sapiens, UniProt P42336); experiment: Inhibition of PI3Kalpha-mediated AKT phosphorylation at Ser473 in human U2OS cells by Western blot analysis; format: cell-based
T1 sequence (P42336 whole entry, canonical isoform): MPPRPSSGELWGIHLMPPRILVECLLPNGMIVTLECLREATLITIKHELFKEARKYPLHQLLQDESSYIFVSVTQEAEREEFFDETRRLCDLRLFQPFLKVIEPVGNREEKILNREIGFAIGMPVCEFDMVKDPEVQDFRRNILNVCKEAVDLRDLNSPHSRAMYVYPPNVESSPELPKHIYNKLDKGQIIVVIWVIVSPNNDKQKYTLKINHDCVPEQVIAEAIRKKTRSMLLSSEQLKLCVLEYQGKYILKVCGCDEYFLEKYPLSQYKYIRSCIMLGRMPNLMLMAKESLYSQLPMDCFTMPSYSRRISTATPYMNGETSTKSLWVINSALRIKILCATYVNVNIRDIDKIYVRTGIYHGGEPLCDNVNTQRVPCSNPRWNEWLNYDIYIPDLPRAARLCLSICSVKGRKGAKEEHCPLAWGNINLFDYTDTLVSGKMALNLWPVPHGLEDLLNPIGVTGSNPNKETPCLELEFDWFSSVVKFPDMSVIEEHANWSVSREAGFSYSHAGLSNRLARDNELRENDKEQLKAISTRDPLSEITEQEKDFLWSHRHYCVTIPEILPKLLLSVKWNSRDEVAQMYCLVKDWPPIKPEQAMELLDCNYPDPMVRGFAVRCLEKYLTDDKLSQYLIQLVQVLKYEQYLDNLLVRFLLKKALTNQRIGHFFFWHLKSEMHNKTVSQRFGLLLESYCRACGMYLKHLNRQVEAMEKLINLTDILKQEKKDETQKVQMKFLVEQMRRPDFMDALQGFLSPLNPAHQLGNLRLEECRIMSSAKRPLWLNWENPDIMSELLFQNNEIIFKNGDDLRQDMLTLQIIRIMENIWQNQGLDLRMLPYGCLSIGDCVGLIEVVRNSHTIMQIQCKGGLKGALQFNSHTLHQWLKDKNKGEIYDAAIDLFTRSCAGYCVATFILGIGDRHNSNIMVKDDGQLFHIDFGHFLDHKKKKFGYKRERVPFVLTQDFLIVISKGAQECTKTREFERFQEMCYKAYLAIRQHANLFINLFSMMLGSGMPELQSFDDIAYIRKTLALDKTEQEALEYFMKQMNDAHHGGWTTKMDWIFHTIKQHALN

[2] = biological target: Serine/threonine-protein kinase mTOR (Homo sapiens, UniProt P42345); experiment: Inhibition of mTOR
[3] = biological target: T1, Phosphatidylinositol 4,5-bisphosphate 3-kinase catalytic subunit alpha isoform; experiment: Inhibition of PI3Kalpha assessed as accumulation of ADP
MDR1 (P-gp), human [4] = experiment: Apparent permeability from apical to basolateral side in MDCK cells over expressing human MDR1 at 2 uM after 150 mins; format: ADME, cell-based, Canis lupus familiaris; settings: dog
MDR1 (P-gp), human [5] = experiment: Efflux ratio of permeability from basolateral to apical side over apical to basolateral side in MDCK cells over expressing human MDR1 at 2 uM after 150 mins; format: ADME, cell-based, Canis lupus familiaris; settings: dog
CYP3A4 = CYP3A4 (Homo sapiens, UniProt P08684); experiment: Inhibition of CYP3A4 at 10 uM; format: ADME
CYP3A4, sequence (P08684 whole entry): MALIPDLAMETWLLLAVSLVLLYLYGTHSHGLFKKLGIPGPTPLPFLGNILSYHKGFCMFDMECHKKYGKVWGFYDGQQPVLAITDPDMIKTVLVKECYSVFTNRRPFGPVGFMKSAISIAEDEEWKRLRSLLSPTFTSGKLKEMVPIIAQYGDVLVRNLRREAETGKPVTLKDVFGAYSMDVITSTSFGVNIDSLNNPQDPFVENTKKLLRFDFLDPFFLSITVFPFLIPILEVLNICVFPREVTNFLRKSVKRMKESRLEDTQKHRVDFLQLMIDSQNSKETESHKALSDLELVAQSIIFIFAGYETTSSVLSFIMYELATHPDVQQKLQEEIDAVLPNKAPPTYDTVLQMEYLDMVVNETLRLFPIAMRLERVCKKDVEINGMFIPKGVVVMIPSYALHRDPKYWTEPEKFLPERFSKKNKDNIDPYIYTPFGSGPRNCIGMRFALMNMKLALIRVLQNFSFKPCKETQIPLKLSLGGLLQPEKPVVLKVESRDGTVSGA

CYP2D6 = CYP2D6 (Homo sapiens, UniProt P10635); experiment: Inhibition of CYP2D6 at 10 uM; format: ADME
CYP2D6, sequence (P10635 whole entry): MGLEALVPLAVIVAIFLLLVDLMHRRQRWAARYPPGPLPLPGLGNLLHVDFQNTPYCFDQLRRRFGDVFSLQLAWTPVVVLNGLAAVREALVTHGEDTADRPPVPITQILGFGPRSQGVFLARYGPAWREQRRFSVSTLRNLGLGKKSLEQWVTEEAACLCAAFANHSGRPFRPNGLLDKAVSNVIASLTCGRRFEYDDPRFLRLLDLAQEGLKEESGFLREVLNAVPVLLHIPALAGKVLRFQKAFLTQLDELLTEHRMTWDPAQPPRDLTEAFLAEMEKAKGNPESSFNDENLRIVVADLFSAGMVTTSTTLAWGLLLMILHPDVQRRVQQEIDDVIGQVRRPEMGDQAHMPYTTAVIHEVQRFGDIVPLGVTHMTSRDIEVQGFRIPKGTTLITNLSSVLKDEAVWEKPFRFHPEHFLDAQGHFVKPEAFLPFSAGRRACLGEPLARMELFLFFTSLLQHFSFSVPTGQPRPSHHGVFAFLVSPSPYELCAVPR

CYP2C9 = CYP2C9 (Homo sapiens, UniProt P11712); experiment: Inhibition of CYP2C9 at 10 uM; format: ADME
CYP2C9, sequence (P11712 whole entry): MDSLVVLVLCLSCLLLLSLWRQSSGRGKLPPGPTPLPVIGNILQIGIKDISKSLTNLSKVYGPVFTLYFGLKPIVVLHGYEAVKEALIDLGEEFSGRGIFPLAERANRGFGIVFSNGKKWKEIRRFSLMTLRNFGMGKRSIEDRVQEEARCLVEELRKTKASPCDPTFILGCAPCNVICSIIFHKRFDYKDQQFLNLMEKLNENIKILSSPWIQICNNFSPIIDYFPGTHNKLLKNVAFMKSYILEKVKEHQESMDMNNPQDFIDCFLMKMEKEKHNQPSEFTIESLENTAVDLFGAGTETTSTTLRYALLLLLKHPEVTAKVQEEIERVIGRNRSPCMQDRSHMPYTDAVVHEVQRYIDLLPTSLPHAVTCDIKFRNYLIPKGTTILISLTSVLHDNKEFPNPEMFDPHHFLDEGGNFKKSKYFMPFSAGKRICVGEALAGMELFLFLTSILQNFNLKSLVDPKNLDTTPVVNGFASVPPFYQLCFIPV

CYP1A2 = biological target: T2, CYP1A2 (Homo sapiens, UniProt P05177); experiment: Inhibition of CYP1A2 at 10 uM; format: ADME
T2 sequence (P05177 whole entry): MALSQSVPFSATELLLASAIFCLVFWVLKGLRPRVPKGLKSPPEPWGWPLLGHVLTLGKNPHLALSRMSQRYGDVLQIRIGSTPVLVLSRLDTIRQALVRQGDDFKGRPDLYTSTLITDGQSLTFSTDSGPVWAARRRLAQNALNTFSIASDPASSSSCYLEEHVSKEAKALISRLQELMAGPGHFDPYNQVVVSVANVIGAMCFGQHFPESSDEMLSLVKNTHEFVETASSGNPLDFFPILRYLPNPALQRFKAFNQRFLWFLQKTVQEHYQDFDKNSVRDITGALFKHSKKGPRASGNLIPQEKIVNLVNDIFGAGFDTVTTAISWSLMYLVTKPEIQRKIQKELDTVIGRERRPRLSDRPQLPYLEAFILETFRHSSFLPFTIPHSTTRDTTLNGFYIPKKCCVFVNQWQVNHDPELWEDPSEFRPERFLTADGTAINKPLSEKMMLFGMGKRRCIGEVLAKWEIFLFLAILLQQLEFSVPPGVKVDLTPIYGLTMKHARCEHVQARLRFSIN

CYP2C19 = CYP2C19 (Homo sapiens, UniProt P33261); experiment: Inhibition of CYP2C19 at 10 uM; format: ADME
CYP2C19, sequence (P33261 whole entry): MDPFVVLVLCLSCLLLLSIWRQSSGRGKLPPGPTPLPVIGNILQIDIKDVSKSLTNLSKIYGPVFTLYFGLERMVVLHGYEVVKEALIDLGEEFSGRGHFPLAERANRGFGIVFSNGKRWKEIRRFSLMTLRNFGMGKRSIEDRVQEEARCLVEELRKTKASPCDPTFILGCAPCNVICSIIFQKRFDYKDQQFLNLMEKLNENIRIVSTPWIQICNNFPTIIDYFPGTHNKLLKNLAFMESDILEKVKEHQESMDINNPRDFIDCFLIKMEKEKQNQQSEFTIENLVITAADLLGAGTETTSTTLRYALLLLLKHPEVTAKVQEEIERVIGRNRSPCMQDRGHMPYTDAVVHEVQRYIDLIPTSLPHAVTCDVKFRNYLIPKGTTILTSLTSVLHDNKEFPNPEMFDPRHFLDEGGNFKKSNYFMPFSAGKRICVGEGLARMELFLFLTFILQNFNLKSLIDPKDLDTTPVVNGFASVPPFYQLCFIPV

[6] = Metabolic stability in mouse liver microsomes assessed as compound remaining at 1 uM after 15 mins; format: ADME, Microsome; settings: read-out: Stability
[7] = Metabolic stability in human liver microsomes assessed as compound remaining at 1 uM after 15 mins; format: ADME, Microsome; settings: read-out: Stability
Homo sapiens = species: Homo sapiens; experiment: Selectivity ratio of IC50 for mTOR to IC50 for PI3Kalpha
[8] = biological target: Phosphatidylinositol 4,5-bisphosphate 3-kinase catalytic subunit beta isoform (Homo sapiens, UniProt P42338); experiment: Inhibition of human PI3Kbeta by HTRF assay; settings: read-out: Ki(app)
Phosphatidylinositol 4,5-bisphosphate 3-kinase catalytic subunit beta isoform, sequence (P42338 whole entry, canonical isoform): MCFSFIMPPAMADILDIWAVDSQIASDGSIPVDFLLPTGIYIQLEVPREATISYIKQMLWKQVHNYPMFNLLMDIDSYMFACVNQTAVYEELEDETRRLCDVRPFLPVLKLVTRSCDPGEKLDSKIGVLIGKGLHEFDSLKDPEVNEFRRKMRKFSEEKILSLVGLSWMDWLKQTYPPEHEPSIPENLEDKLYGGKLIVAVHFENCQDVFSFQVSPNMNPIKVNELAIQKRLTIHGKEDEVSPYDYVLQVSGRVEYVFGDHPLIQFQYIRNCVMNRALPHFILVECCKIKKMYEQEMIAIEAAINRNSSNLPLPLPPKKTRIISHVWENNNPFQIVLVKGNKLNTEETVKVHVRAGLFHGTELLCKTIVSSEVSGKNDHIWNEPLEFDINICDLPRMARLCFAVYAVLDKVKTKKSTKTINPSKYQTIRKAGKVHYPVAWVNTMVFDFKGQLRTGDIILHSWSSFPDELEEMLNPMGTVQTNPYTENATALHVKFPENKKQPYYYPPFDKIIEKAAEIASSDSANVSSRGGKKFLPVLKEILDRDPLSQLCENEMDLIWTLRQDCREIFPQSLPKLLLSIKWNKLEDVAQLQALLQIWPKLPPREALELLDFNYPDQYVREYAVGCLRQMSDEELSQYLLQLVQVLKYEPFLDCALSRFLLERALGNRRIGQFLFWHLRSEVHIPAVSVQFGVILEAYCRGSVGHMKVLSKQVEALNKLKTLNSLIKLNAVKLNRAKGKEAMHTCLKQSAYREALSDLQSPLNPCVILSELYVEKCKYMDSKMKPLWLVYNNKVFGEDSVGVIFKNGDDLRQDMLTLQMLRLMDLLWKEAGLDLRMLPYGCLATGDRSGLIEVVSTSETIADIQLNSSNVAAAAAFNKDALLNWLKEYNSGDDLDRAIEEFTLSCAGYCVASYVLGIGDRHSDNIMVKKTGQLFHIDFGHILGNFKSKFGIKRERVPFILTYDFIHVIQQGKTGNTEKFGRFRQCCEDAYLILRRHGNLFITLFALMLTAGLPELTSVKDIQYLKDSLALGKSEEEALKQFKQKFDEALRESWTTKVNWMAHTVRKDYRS

[9] = biological target: T3, Phosphatidylinositol 4,5-bisphosphate 3-kinase catalytic subunit delta isoform (Homo sapiens, UniProt O00329); experiment: Inhibition of human PI3Kdelta by HTRF assay; settings: read-out: Ki(app)
T3 sequence (O00329 whole entry): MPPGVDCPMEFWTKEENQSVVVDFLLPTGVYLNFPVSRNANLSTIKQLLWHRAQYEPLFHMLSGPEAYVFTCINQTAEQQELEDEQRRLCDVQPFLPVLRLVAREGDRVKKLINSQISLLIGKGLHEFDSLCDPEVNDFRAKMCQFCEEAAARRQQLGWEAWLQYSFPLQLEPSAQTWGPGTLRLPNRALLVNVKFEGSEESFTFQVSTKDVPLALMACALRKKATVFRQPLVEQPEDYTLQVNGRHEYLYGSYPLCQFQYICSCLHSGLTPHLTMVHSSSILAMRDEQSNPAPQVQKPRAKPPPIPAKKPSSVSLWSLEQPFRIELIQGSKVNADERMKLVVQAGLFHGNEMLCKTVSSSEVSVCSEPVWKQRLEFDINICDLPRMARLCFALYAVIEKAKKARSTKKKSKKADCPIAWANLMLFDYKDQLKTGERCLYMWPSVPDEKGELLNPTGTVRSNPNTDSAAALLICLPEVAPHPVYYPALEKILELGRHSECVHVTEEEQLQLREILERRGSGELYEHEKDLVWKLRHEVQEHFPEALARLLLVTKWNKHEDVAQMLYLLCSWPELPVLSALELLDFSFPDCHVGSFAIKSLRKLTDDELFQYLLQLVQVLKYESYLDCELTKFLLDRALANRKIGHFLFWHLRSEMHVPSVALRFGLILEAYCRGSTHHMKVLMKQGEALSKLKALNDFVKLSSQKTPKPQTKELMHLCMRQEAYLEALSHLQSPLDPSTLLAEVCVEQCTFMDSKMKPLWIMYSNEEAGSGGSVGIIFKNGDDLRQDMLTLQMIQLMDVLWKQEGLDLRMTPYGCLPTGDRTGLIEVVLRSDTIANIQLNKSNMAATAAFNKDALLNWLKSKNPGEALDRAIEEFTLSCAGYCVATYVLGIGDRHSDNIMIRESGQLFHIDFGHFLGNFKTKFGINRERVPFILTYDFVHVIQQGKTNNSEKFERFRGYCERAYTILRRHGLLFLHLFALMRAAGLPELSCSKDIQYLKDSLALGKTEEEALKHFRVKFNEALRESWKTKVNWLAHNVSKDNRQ

[10] = biological target: Phosphatidylinositol 4,5-bisphosphate 3-kinase catalytic subunit gamma isoform (Homo sapiens, UniProt P48736); experiment: Inhibition of PI3Kgamma assessed as accumulation of ADP; settings: read-out: Ki(app)
Mus musculus [11] = experiment: Down regulation of phosphorylated AKT at S473 level in GEMM mouse lung tumor model driven by KRasG12V oncogenic mutation tumor at 10 mg/kg, po after 1 hr by Western blot analysis; format: functional
Mus musculus [12] = experiment: Antitumor activity in GEMM mouse lung tumor model driven by KRasG12V oncogenic mutation assessed as tumor growth inhibition at 25 mg/kg, po qd for weekly 5 days for 3 weeks; format: functional; settings: read-out: GI
Mus musculus [13] = species: Mus musculus; experiment: Reduction of [18F]-FDG uptake in GEMM mouse lung tumor model driven by KRasG12V oncogenic mutation tumor after 45 mins by PET-CT analysis; format: functional; settings: Neoplasm
Lung = experiment: Reduction of [18F]-FDG uptake in GEMM mouse lung tumor model driven by KRasG12V oncogenic mutation lung after 45 mins by PET-CT analysis; format: functional, tissue-based
BT-474 = experiment: Antitumor activity against human BT474 cells with PI3Kalpha […] mutated xenografted in MF-1 nude mouse assessed as tumor growth inhibition at 10 mg/kg, po qd for weekly 5 days for 2 weeks; format: functional; settings: read-out: GI

SMILES | IC50 [1] | IC50 [2] | IC50 [3] | further results
Nc1ncc(-c2cn3cc(C(=O)NC4CCOCC4)nc3c(N3CCOCC3)n2)cn1 | – | 0.751 µM | – | –
NC(=O)c1cn2cc(-c3cnc(N)nc3)nc(N3CCOCC3)c2n1 | 0.0018 µM | 0.237 µM | 0.0004 µM | Papp A→B at 2.5 h, 2 µM (MDR1 (P-gp), human [4]): 15.4 ×10⁻⁶ cm/s; efflux ratio at 2.5 h, 2 µM (MDR1 (P-gp), human [5]): 0.9; inhibition at 10 µM (CYP3A4): 17%; inhibition at 10 µM (CYP2D6): 8%; inhibition at 10 µM (CYP2C9): 5%; inhibition at 10 µM (CYP1A2): 24%; inhibition at 10 µM (CYP2C19): 13%; remaining at 0.25 h, 1 µM [6]: 92%; remaining at 0.25 h, 1 µM [7]: 90%; Ratio IC50 (Homo sapiens): > 50
CN(C)CCCNC(=O)c1cn2cc(-c3cccc4[nH]ncc34)nc(N3CCOCC3)c2n1 | 0.429 µM | – | – | –
COCCNC(=O)c1nc2c(N3CCOCC3)nc(-c3cnc(N)nc3)cn2c1C | – | – | – | Ki [8]: 0.0941 µM; Ki [9]: 0.008 µM; Ki [10]: 0.0629 µM; Activity (Mus musculus [11]): >70%; inhibition in vivo at 25 mg/kg (Mus musculus [12]): 61%; Activity (Mus musculus [13]): Active; Activity (Lung): Active; inhibition in vivo at 10 mg/kg (BT-474): 58%
Nc1ncc(-c2cn3cc(C(=O)N[C@H]4CC[C@H](O)CC4)nc3c(N3CCOCC3)n2)cn1 | 0.07 µM | 0.989 µM | – | Ratio IC50 (Homo sapiens): > 50
Nc1ncc(-c2cn3cc(C(=O)NCCN4CCOCC4)nc3c(N3CCOCC3)n2)cn1 | 0.0343 µM | > 5 µM | 0.0104 µM | –
COCCNC(=O)c1cn2c(Cl)c(-c3cnc(N)nc3)nc(N3CCOCC3)c2n1 | 0.0351 µM | – | 0.0112 µM | –

Second part, led by results:

IC50 [1] | IC50 [2] | IC50 [3] | SMILES | further results
0.0303 µM | > 5 µM | 0.0046 µM | CN(C)CCNC(=O)c1cn2cc(-c3cnc(N)nc3)nc(N3CCOCC3)c2n1 | –
0.026 µM | > 5 µM | 0.0032 µM | COCCCNC(=O)c1cn2cc(-c3cnc(N)nc3)nc(N3CCOCC3)c2n1 | –
0.0087 µM | > 5 µM | 0.0006 µM | CN(C)CCCNC(=O)c1cn2cc(-c3cnc(N)nc3)nc(N3CCOCC3)c2n1 | –
0.014 µM | 2.29 µM | 0.0027 µM | COCCNC(=O)c1cn2cc(-c3cnc(N)nc3)nc(N3CCOCC3)c2n1 | –
